Assay results reported in US8258134B2, “Pyridazinone glucokinase activators” (Hoffmann-La Roche Inc., priority 2008, dated 2012).

Molecular target: T1, Recombinant human liver GK1 (GST-GK) (Homo sapiens, UniProt P35557)
T1 construct: made in house; host or cells: E. coli
T1 sequence (P35557 1-466 isoform P35557-2): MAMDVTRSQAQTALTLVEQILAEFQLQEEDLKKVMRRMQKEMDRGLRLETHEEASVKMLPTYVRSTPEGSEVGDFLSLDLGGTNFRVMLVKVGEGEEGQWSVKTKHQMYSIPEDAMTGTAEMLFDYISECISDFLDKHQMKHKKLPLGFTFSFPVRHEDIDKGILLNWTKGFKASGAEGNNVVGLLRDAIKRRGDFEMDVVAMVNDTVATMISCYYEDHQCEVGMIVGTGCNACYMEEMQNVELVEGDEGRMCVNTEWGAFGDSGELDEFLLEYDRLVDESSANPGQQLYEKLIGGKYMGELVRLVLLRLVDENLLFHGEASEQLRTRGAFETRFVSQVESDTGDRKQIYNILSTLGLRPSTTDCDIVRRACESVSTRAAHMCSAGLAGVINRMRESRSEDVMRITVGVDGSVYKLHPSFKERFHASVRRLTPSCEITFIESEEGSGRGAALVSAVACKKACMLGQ
Assay: Glucokinase in vitro assay (G6PDH-coupled NADH generation, OD340)
Assay type: biochemical
Conditions: 30 uM test compound, 5 mM D-glucose
Procedure, shortened: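 GST-tagged recombinant GK1 expressed in E. coli, run at 30° C, pH 7.1 Hepes with 5 mM D-glucose, 1 mM ATP and 1.8 mM NAD, G6PDH-coupled. Compounds were in 10% DMSO final, with a 10 min pre-incubation before enzyme addition. OD340/min rate measured; SC1.5 is the activator concentration giving a 50% increase in activity.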

SMILES	fold activation @ 30 uM [fold]
CC(C)(O)Cn1ccc(NC(=O)[C@@H](CC2CCCC2)n2ncc(Oc3ccccc3S(C)(=O)=O)cc2=O)n1 [Example 30B, (R)-3-Cyclopentyl-N-[1-(2-hydroxy-2-methyl-propyl)-1H-pyrazol-3-yl]-2-[4-(2-methanesulfonyl-phenoxy)-6-oxo-6H-pyridazin-1-yl]-propionamide]	1.16
Cn1nc(NC(=O)C(CC2CCCC2)n2ncc(Oc3ccccc3C(F)(F)F)cc2=O)cc1C(F)(F)F (stereo not shown) [Example 45, 3-Cyclopentyl-N-(1-methyl-5-trifluoromethyl-1H-pyrazol-3-yl)-2-[6-oxo-4-(2-trifluoromethyl-phenoxy)-6H-pyridazin-1-yl]-propionamide]	1.15

Same assay, conditions: 5 mM D-glucose, 30° C., pH 7.1, 10% DMSO

SMILES	SC1.5 average (concentration of activator that produced a 50% increase in the activity of GK) [µM]
CCOc1ccc(F)c(Oc2cnn(C(CC3CCOCC3)C(=O)Nc3ccn(C[C@@H](O)CO)n3)c(=O)c2)c1F (stereo partly drawn) [Example 121, N-[1-((R)-2,3-Dihydroxy-propyl)-1H-pyrazol-3-yl]-2-[4-(3-ethoxy-2,6-difluoro-phenoxy)-6-oxo-6H-pyridazin-1-yl]-3-(tetrahydro-pyran-4-yl)-propionamide]	0.088
O=C(Nc1ccn(C[C@H](O)CO)n1)C(CC1CCCC1)n1ncc(Oc2c(F)cccc2F)cc1=O (stereo partly drawn) [Example 65, 3-Cyclopentyl-2-[4-(2,6-difluoro-phenoxy)-6-oxo-6H-pyridazin-1-yl]-N-[1-((S)-2,3-dihydroxy-propyl)-1H-pyrazol-3-yl]-propionamide]	0.102
CC(C)(O)Cn1ccc(NC(=O)[C@@H](CC2CCCC2)n2ncc(Oc3ccccc3S(C)(=O)=O)cc2=O)n1 [Example 30B, (R)-3-Cyclopentyl-N-[1-(2-hydroxy-2-methyl-propyl)-1H-pyrazol-3-yl]-2-[4-(2-methanesulfonyl-phenoxy)-6-oxo-6H-pyridazin-1-yl]-propionamide]	> 30
O=C(Nc1cnc(C(O)CO)cn1)C(CC1CCCC1)n1ncc(Oc2c(F)cccc2F)cc1=O (stereo in doubt) [Example 106, 3-Cyclopentyl-2-[4-(2,6-difluoro-phenoxy)-6-oxo-6H-pyridazin-1-yl]-N-[5-((R)-1,2-dihydroxy-ethyl)-pyrazin-2-yl]-propionamide]	0.082
CC(C)CC(C(=O)Nc1ccn(C[C@@H](O)CO)n1)n1ncc(Oc2cccc3[nH]ccc23)cc1=O (stereo partly drawn) [Example 111, 2-[4-(1H-Indol-4-yloxy)-6-oxo-6H-pyridazin-1-yl]-4-methyl-pentanoic acid [1-((R)-2,3-dihydroxy-propyl)-1H-pyrazol-3-yl]-amide]	0.554
CC(C)(O)Cn1ccc(NC(=O)C(CC2CCCC2)n2ncc(Oc3cccc4c3OC(C)(C)C4)cc2=O)n1 (stereo not shown) [Example 89, 3-Cyclopentyl-2-[4-(2,2-dimethyl-2,3-dihydro-benzofuran-7-yloxy)-6-oxo-6H-pyridazin-1-yl]-N-[1-(2-hydroxy-2-methyl-propyl)-1H-pyrazol-3-yl]-propionamide]	0.568
COc1cccc(Oc2cnn(C(CC3CCCC3)C(=O)Nc3ccn(CC(C)(C)O)n3)c(=O)c2)c1 (stereo not shown) [Example 7, 3-Cyclopentyl-N-[1-(2-hydroxy-2-methyl-propyl)-1H-pyrazol-3-yl]-2-[4-(3-methoxy-phenoxy)-6-oxo-6H-pyridazin-1-yl]-propionamide]	0.428
Cn1nc(NC(=O)C(CC2CCCC2)n2ncc(Oc3ccccc3C(F)(F)F)cc2=O)cc1C(F)(F)F (stereo not shown) [Example 45, 3-Cyclopentyl-N-(1-methyl-5-trifluoromethyl-1H-pyrazol-3-yl)-2-[6-oxo-4-(2-trifluoromethyl-phenoxy)-6H-pyridazin-1-yl]-propionamide]	> 30
CC(C)(O)Cn1ccc(NC(=O)C(CC2CCCC2)n2ncc(Oc3ccccc3N3CCCCC3)cc2=O)n1 (stereo not shown) [Example 27, 3-Cyclopentyl-N-[1-(2-hydroxy-2-methyl-propyl)-1H-pyrazol-3-yl]-2-[6-oxo-4-(2-piperidin-1-yl-phenoxy)-6H-pyridazin-1-yl]-propionamide]	2.385
O=C(Nc1ccn(C[C@@H](O)CO)n1)C(Cc1c(F)cccc1F)n1ncc(Oc2c(F)cccc2F)cc1=O (stereo partly drawn) [Example 108, 2-[4-(2,6-Difluoro-phenoxy)-6-oxo-6H-pyridazin-1-yl]-3-(2,6-difluoro-phenyl)-N-[1-((R)-2,3-dihydroxy-propyl)-1H-pyrazol-3-yl]-propionamide]	0.521
CC(C)(O)Cn1ccc(NC(=O)C(CC2CCCC2)n2ncc(S(=O)(=O)c3ccccc3)cc2=O)n1 (stereo not shown) [Example 125, 2-(4-Benzenesulfonyl-6-oxo-6H-pyridazin-1-yl)-3-cyclopentyl-N-[1-(2-hydroxy-2-methyl-propyl)-1H-pyrazol-3-yl]-propionamide]	2.611
COc1ccc(Oc2cnn(C(CC3CCCCC3)C(=O)Nc3ccn(CC(C)(C)O)n3)c(=O)c2)c(F)c1 (stereo not shown) [Example 116, 3-Cyclohexyl-2-[4-(2-fluoro-4-methoxy-phenoxy)-6-oxo-6H-pyridazin-1-yl]-N-[1-(2-hydroxy-2-methyl-propyl)-1H-pyrazol-3-yl]-propionamide]	0.543
CC(C)(O)Cn1ccc(NC(=O)C(CC2CCC2)n2ncc(Oc3c(F)cccc3F)cc2=O)n1 (stereo not shown) [Example 49, 3-Cyclobutyl-2-[4-(2,6-difluoro-phenoxy)-6-oxo-6H-pyridazin-1-yl]-N-[1-(2-hydroxy-2-methyl-propyl)-1H-pyrazol-3-yl]-propionamide]	0.305
CC(C)(O)Cn1ccc(NC(=O)[C@H](CC2CCCC2)n2ncc(Oc3ccc(F)cc3F)cc2=O)n1 [Example 32A, (S)-3-Cyclopentyl-2-[4-(2,4-difluoro-phenoxy)-6-oxo-6H-pyridazin-1-yl]-N-[1-(2-hydroxy-2-methyl-propyl)-1H-pyrazol-3-yl]-propionamide]	0.502
CC(C)(O)Cn1ccc(NC(=O)C(CC2CCCC2)n2ncc(Oc3ccccc3N3CCCC3)cc2=O)n1 (stereo not shown) [Example 26, 3-Cyclopentyl-N-[1-(2-hydroxy-2-methyl-propyl)-1H-pyrazol-3-yl]-2-[6-oxo-4-(2-pyrrolidin-1-yl-phenoxy)-6H-pyridazin-1-yl]-propionamide]	0.196
Cc1ccc(F)c(Oc2cnn(C(CC3CCCC3)C(=O)Nc3ccn(C[C@@H](O)CO)n3)c(=O)c2)c1F (stereo partly drawn) [Example 107, 3-Cyclopentyl-2-[4-(2,6-difluoro-3-methyl-phenoxy)-6-oxo-6H-pyridazin-1-yl]-N-[1-((R)-2,3-dihydroxy-propyl)-1H-pyrazol-3-yl]-propionamide]	0.042
Cc1ccccc1Oc1cnn([C@H](CC2CCCC2)C(=O)Nc2ccc(C(=O)O)cn2)c(=O)c1 [Example 74B, 6-[(R)-3-Cyclopentyl-2-(6-oxo-4-o-tolyloxy-6H-pyridazin-1-yl)-propionylamino]-nicotinic acid]	0.245
CC(C)(O)Cn1ccc(NC(=O)C(CC2CCCC2)n2ncc(Oc3ccccc3C(C)(C)C)cc2=O)n1 (stereo not shown) [Example 90, 2-[4-(2-tert-Butyl-phenoxy)-6-oxo-6H-pyridazin-1-yl]-3-cyclopentyl-N-[1-(2-hydroxy-2-methyl-propyl)-1H-pyrazol-3-yl]-propionamide]	0.5
CC(C)(O)Cn1ccc(NC(=O)[C@H](CC2CCCC2)n2ncc(Oc3ccccc3C3CCCC3)cc2=O)n1 [Example 22A, (S)-3-Cyclopentyl-2-[4-(2-cyclopentyl-phenoxy)-6-oxo-6H-pyridazin-1-yl]-N-[1-(2-hydroxy-2-methyl-propyl)-1H-pyrazol-3-yl]-propionamide]	0.263
Cc1cc(C)nc(Oc2cnn(C(CC3CCCC3)C(=O)Nc3ccn(C[C@@H](O)CO)n3)c(=O)c2)n1 (stereo partly drawn) [Example 102, 3-Cyclopentyl-N-[1-((R)-2,3-dihydroxy-propyl)-1H-pyrazol-3-yl]-2-[4-(4,6-dimethyl-pyrimidin-2-yloxy)-6-oxo-6H-pyridazin-1-yl]-propionamide]	0.56
O=C(Nc1nccs1)C(CC1CCCC1)n1ncccc1=O (stereo not shown) [Example 79, 3-Cyclopentyl-2-(6-oxo-6H-pyridazin-1-yl)-N-thiazol-2-yl-propionamide]	14.605
CC(C)(O)Cn1ccc(NC(=O)C(CC2CCOCC2)n2ncc(Oc3ccccc3Cl)cc2=O)n1 (stereo not shown) [Example 135, 2-[4-(2-Chloro-phenoxy)-6-oxo-6H-pyridazin-1-yl]-N-[1-(2-hydroxy-2-methyl-propyl)-1H-pyrazol-3-yl]-3-(tetrahydro-pyran-4-yl)-propionamide]	0.235
CC(C)(O)Cn1ccc(NC(=O)C(CC2CCCC2)n2ncc(Oc3cccc4ccccc34)cc2=O)n1 (stereo not shown) [Example 20]	0.058
